The source of these data is patent EP0082266A1, “Substituted 1,5-diaminopentanes, their preparation and pharmaceutical compositions containing them” (BASF Aktiengesellschaft, priority 1981, dated 1983).

The test system of data set [1] is Aconitinarrhythmie der Ratte. The experiment in a line: Antiarrhythmic activity, aconitine-induced arrhythmia in the anaesthetised rat (oral dosing, aconitine i.v. infusion 60 min later). It is filed as in vivo, Ratten (Stamm: Sprague Dawley). The note with it: for ED50: Rattus norvegicus, po, 1 h, read-out: Wirksame Dosis ED 50 %; for R.W. = Relative Wirksamkeit, bezogen auf Chinidin = 1,00 / Maximale Wirkung Δ % (Verlängerung der Aconitinfusionsdauer): rat, per os; for R.W. = Relative Wirksamkeit, bezogen auf Chinidin = 1,00: relative potency from ED 50 %; for Maximale Wirkung Δ % (Verlängerung der Aconitinfusionsdauer): effect of the maximal tolerated dose. How it is done: Zur Bestimmung der antiarrhythmischen Wirksamkeit werden die Substanzen Ratten (Stamm: Sprague Dawley, Gewicht 200 bis 250 g) oral appliziert. 45 min später werden die Tiere mit Thiobutabarbital-Natrium (100,0 mg/kg i.p.) narkotisiert. Als arrhythmogene Substanz dient Aconitin, das 60 min nach Substanzapplikation i.v. infundiert wird (Dosierungsgeschwindigkeit: 0,005 mg/kg x min). Bei nicht behandelten Tieren (N = 52) treten nach 2,74 + 0,07 min im EKG Arrhythmien auf, deren Eintritt durch Antiarrhythmika dosisabhängig verzögert werden kann.
Aus den linearen Beziehungen zwischen log Dosis (mg/kg) der Prüfsubstanzen und der relativen Verlängerung der Aconitin--Infusionsdauer (Δ%) wird die Dosis bestimmt, welche die Infusionsdauer um 50 % verlängert (ED 50 %).
(§1) Zur weiteren Charakterisierung der Substanzen wird aus der in den Experimenten verwendeten dezimalgeometrischen Dosenfolge (Faktor [formula] ) die antiarrhythmische Wirkung der maximal tolerierten Dosis bestimmt.

The test system of the next data set is Ratte. Nature of the data set: Acute toxicity / tolerability in the rat after oral dosing (toxic symptoms: changes of baseline ECG, cyanosis, convulsions). It is filed as in vivo. The note with it: per os; for Toxizität Dosis: dose after which the first toxic symptoms are observed.
From the text: as §1
(§2) Ferner wird die Dosis ermittelt, bei welcher toxische Symptome (Veränderungen des Ausgangs-EKG, Cyanose, Krämpfe) auftreten.

Experiment in data set [2]: as above
Particulars: in vivo, po; for MTD: per os, highest tolerated dose, at which the maximal effect was read, read-out: Maximale Wirkung Dosis (maximal tolerierte Dosis); for selectivity ratio: read-out: Q = Toxische Dosis / ED 50 %. It is filed as in vivo.
From the text: as §1, §2

Counter-ions that a name gives are not always drawn.

Take `CCNCC(CCCN(C)CCc1ccccc1)(c1ccccc1)C(C)C` (stereo not drawn) [Beispiel 9, 1-Ethylamino-2-isopropyl-2-phenyl-5-(phenethyl)-methyl-amino-pentan-dihydrochlorid]: in data set [1], the ED50 stood at 11.8 mg/kg and the “R.W. = Relative Wirksamkeit, bezogen auf Chinidin = 1,00” value (“R.W. = Relative Wirksamkeit” below) is 3,69.
Regarding `COc1ccc(CCN(C)CCCC(CN(C)C)(c2ccc(OC)c(OC)c2)C(C)C)cc1OC` (stereo not drawn) [Beispiel 38, 1-Dimethylamino-2-isopropyl-2-(3,4-dimethoxyphenyl)--5-[(3,4-dimethoxyphenethyl)methylamino]-pentan-dihydrochlorid], in data set [1], the ED50 amounted to 27.8 mg/kg and the “R.W. = Relative Wirksamkeit” value is recorded as 1,57.
Regarding `CNCC(CCCN(C)CCc1ccc(OC)c(OC)c1)(c1cc(OC)c(OC)c(OC)c1)C(C)C` (stereo not drawn) [Beispiel 33, 1-Methylamino-2-isopropyl-2-(3,4,5-trimethoxyphenyl)--5-[(3,4-dimethoxyphenethyl)methylamino]-pentan-dihydrochlorid], in data set [1], the ED50 is 21.5 mg/kg and the “R.W. = Relative Wirksamkeit” value was 2,02.
For `CC(C)C(CN)(CCCN(C)CCc1ccccc1)c1ccccc1` (stereo not drawn) [Beispiel 1, 1-Amino-2-isopropyl-2-phenyl-5-(phenethyl)methylamino-pentan], in that order: 29.4 mg/kg and 1,48.
Consider `CN(C)CC(CCCN(C)CCc1ccccc1)c1ccccc1` (stereo not drawn) [Beispiel 34, 1-Dimethylamino-2-phenyl-5-(phenethyl)methylamino--pentan], for which, in data set [1], the ED50 is 14.7 mg/kg and the “R.W. = Relative Wirksamkeit” value was 2,96.
In the case of `CC(C)CNCC(CCCN(C)CCc1ccccc1)(c1ccccc1)C(C)C` (stereo not drawn) [Beispiel 14, 1-Isobutylamino-2-isopropyl-2-phenyl-5-(phenethyl)-methylamino-pentan-dihydrochlorid], in the data set on Ratte, the “Toxizität Dosis” value turned out to be 215 mg/kg. In data set [2], the MTD is 100 mg/kg and the selectivity ratio is 15. Besides, in data set [1], the ED50 was 14.3 mg/kg; the “Maximale Wirkung Δ % (Verlängerung der Aconitinfusionsdauer)” value (“Maximale Wirkung Δ %” for short) was found to be 287%; the “R.W. = Relative Wirksamkeit” value is recorded as 3,04.
As to `CCCCNCC(CCCN(C)CCc1ccccc1)(c1ccccc1)C(C)C` (stereo not drawn) [Beispiel 12, 1-(n-Butyl)amino-2-isopropyl-2-phenyl-5-(phenethyl)-methylamino-pentan-dihydrochlorid], in data set [1], the ED50 turned out to be 22.5 mg/kg and the “R.W. = Relative Wirksamkeit” value was 1,93.
Consider `CCCCC(CCCN(C)CCc1ccccc1)(CN(C)C)c1ccccc1` (stereo not drawn) [Beispiel 36, 1-Dimethylamino-2-(n-butyl)-2-phenyl-5-(phenethyl)--methylamino-pentan], for which, in data set [1], the ED50 worked out at 8.66 mg/kg and the “R.W. = Relative Wirksamkeit” value is 5,02.
In the case of `CNCC(CCCN(C)CCc1ccccc1)c1ccccc1` (stereo not drawn) [Beispiel 28, 1-Methylamino-2-phenyl-5-(phenethyl)methylamino--pentan], in data set [1], the ED50 came to 11.6 mg/kg and the “R.W. = Relative Wirksamkeit” value is recorded as 3,75.
Regarding `CCCCNCC(CCCN(C)CCc1ccc(OC)c(OC)c1)(c1cc(OC)c(OC)c(OC)c1)C(C)C` (stereo not drawn) [Beispiel 23], in data set [1], the ED50 worked out at 33.8 mg/kg.
Turning to `CCCNCC(CCCN(C)CCc1ccc(OC)c(OC)c1)(c1cc(OC)c(OC)c(OC)c1)C(C)C` (stereo not drawn) [Beispiel 21, 1-(n-Propyl)amino-2-isopropyl-2-(3,4,5-trimethoxyphenyl)-5-[(3,4-dimethoxyphenethyl)methylamino]--pentan-dihydrochlorid], in data set [1], the ED50 is 23.4 mg/kg and the “R.W. = Relative Wirksamkeit” value is reported as 1,86.
Turning to `CCNCC(CCCN(C)CCc1ccc(OC)c(OC)c1)(c1cc(OC)c(OC)c(OC)c1)C(C)C` (stereo not drawn) [Beispiel 20, 1-Ethylamino-2-isopropyl-2-(3,4,5-trimethoxyphenyl)-5--[(3,4-dimethoxyphenethyl)methylamino]-pentan-dihydrochlorid], in the data set with Ratte, the “Toxizität Dosis” value was 464 mg/kg. For the same compound, in data set [2], the MTD was found to be 215 mg/kg and the selectivity ratio was 38. For the same compound, in data set [1], the ED50 was determined as 12.3 mg/kg; the “Maximale Wirkung Δ %” value was 224%; the “R.W. = Relative Wirksamkeit” value is recorded as 3,54.
Turning to `CCCCCCCCCCCCC(CCCN(C)CCc1ccccc1)(CN(C)C)c1ccccc1` (stereo not drawn) [Beispiel 40, 1-Dimethylamino-2-(n-dodecyl)-2-phenyl-5-(phenethyl)methylamino-pentan], in data set [1], the ED50 was determined as 6.88 mg/kg and the “R.W. = Relative Wirksamkeit” value was 6,32.
For the compound `COc1ccc(CCN(C)CCCC(CNC(C)C)(c2ccc(OC)c(OC)c2)C(C)C)cc1OC` (stereo not drawn) [Beispiel 17, 1-Isopropylamino-2-isopropyl-2-(3,4-dimethoxyphenyl)-5--[(3,4-dimethoxyphenethyl)methylamino]-pentan-dihydrochlorid], in data set [1], the ED50 was found to be 26.1 mg/kg and the “R.W. = Relative Wirksamkeit” value is 1,67.
Consider `CCCNCC(CCCN(C)CCc1ccccc1)(c1ccccc1)C(C)C` (stereo not drawn) [Beispiel 10, 1-(n-Propyl)amino-2-isopropyl-2-phenyl-5-(phenethyl)-methylamino-pentan-dihydrochlorid], for which the “Toxizität Dosis” value in the data set with Ratte turned out to be 215 mg/kg. In data set [2], the MTD worked out at 100 mg/kg and the selectivity ratio is 18. In data set [1], the ED50 amounted to 11.8 mg/kg; the “Maximale Wirkung Δ %” value amounted to 243%; the “R.W. = Relative Wirksamkeit” value is given as 3,69.
`CCCCNCC(CCCN(C)CCc1ccc(OC)c(OC)c1)(c1ccc(Cl)cc1)C(C)C` (stereo not drawn) [Beispiel 27, 1-(n-Butyl)amino-2-isopropyl-2-(4-chlorphenyl)--5-[(3,4-dimethoxyphenethyl)methylamino]-pentan--dihydrochlorid]: in data set [1], the ED50 is 21.5 mg/kg and the “R.W. = Relative Wirksamkeit” value is listed as 2,02.
As for `CN(C)CC(C)(CCCN(C)CCc1ccccc1)c1ccccc1` (stereo not drawn) [Beispiel 35, 1-Dimethylamino-2-methyl-2-phenyl-5-(phenethyl)-methyl-amino-pentan], in data set [1], the ED50 stood at 8.02 mg/kg and the “R.W. = Relative Wirksamkeit” value is reported as 5,42.
For `COc1ccc(CCN(C)CCCC(CNC(C)C)(c2cc(OC)c(OC)c(OC)c2)C(C)C)cc1OC` (stereo not drawn) [Beispiel 22, 1-Isopropylamino-2-isopropyl-2-(3,4,5-trimethoxyphenyl)-5-[(3,4-dimethoxyphenethyl)methylamino]--pentan-dihydrochlorid], in that order: 24.8 mg/kg and 1,75.
Regarding `CCC(C)NCC(CCCN(C)CCc1ccc(OC)c(OC)c1)(c1cc(OC)c(OC)c(OC)c1)C(C)C` (stereo not drawn) [Beispiel 24], in data set [1], the ED50 was determined as 17 mg/kg and the “R.W. = Relative Wirksamkeit” value is 2,56.
Turning to `CC(C)C(CCCN(C)CCc1ccccc1)(CN(C)C)c1ccccc1` (stereo not drawn) [Beispiel 37, 1-Dimethylamino-2-isopropyl-2-phenyl-5-(phenethyl)--methylamino-pentan-dihydrochlorid], in the data set on Ratte, the “Toxizität Dosis” value came out at 100 mg/kg. In addition, in data set [2], the MTD amounted to 46.4 mg/kg and the selectivity ratio worked out at 13. Also, in data set [1], the ED50 came to 7.99 mg/kg; the “Maximale Wirkung Δ %” value is 423%; the “R.W. = Relative Wirksamkeit” value is listed as 5,44.
For `CC(C)C(CN)(CCCNCCc1ccccc1)c1ccccc1.Cl.Cl` (stereo not drawn) [Beispiel 6, 1-Amino-2-isopropyl-2-phenyl-5-(phenethyl)amino--pentan-dihydrochlorid], in data set [1], the ED50 was determined as 21.6 mg/kg and the “R.W. = Relative Wirksamkeit” value was 2,01.
Take `CNCC(CCCN(C)CCc1ccc(OC)c(OC)c1)(c1ccc(OC)c(OC)c1)C(C)C` (stereo not drawn) [Beispiel 32, 1-Methylamino-2-isopropyl-2-(3,4-dimethoxyphenyl)-5--[(3,4-dimethoxyphenethyl)methylamino]-pentan-dihydrochlorid]: the ED50 in data set [1] is 33.8 mg/kg.
In the case of `C=CC1CN2CCC1CC2C(O)c1ccnc2ccc(OC)cc12` (stereo not drawn) [Chinidin, reference compound], in the data set with Ratte, the “Toxizität Dosis” value is recorded as 464 mg/kg. Further, the “Q = Toxische Dosis / ED 50 %” value with Ratte (therapeutic width) is “ll”. Besides, in data set [1], the ED50 was 43.5 mg/kg; the “Maximale Wirkung Δ %” value stood at 129%; the “R.W. = Relative Wirksamkeit” value is reported as “≡ 1,00”.
Take `CCNCC(CCCN(C)CCc1ccc(OC)c(OC)c1)(c1ccc(OC)c(OC)c1)C(C)C` (stereo not drawn) [Beispiel 15, 1-Ethylamino-2-isopropyl-2-(3,4-dimethoxyphenyl)-5--[(3,4-dimethoxyphenethyl)methylamino]-pentan-dihydrochlorid]: in data set [1], the ED50 amounted to 17.1 mg/kg and the “R.W. = Relative Wirksamkeit” value is on record as 2,54.
For the compound `CCC(C)NCC(CCCN(C)CCc1ccccc1)(c1ccccc1)C(C)C` (stereo not drawn) [Beispiel 13, 1-(sec-Butyl)amino-2-isopropyl-2-phenyl-5-(phenethyl)-methylamino-pentan-dihydrochlorid], the “Toxizität Dosis” value in the data set with Ratte is reported as 215 mg/kg. In data set [2], the MTD amounted to 100 mg/kg and the selectivity ratio came out at 17. In addition, in data set [1], the ED50 amounted to 12.9 mg/kg; the “Maximale Wirkung Δ %” value worked out at 237%; the “R.W. = Relative Wirksamkeit” value is listed as 3,37.
Turning to `CC(C)NCC(CCCN(C)CCc1ccccc1)(c1ccccc1)C(C)C` (stereo not drawn) [Beispiel 11, 1-Isopropylamino-2-isopropyl-2-phenyl-5-(phenethyl)-methylamino-pentan-dihydrochlorid], the ED50 in data set [1] is 6.42 mg/kg.
